Reference: ChEMBL document CHEMBL1201862, “PubChem BioAssay data set” (2004)
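A five-concentration, 48-hour dose response in 96-well plates underlies each endpoint, interpolated linearly between surrounding concentrations. GI50: concentration for 50% inhibition of growth.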 Activity calls are given as the source filed them. Rule as the data show it: active = GI50 up to about 1.1 µM and inactive = higher.

Columns and labels:
Assay in all cases: NCI-60 cell line screen, 48 h
[1] = tested on: NCI-H522
[2] = tested on: A549
[3] = tested on: SN12C
[4] = tested on: U-251
[5] = tested on: Malme-3M
[6] = tested on: MDA-N
[7] = tested on: OVCAR-5
[8] = tested on: IGROV-1
[9] = tested on: SK-OV-3
[10] = tested on: NCI-H23
[11] = tested on: 786-0
[12] = tested on: HT-29
[13] = tested on: HOP-62
[14] = tested on: UACC-62
[15] = tested on: OVCAR-4
[16] = tested on: SW-620
[17] = tested on: LOX IMVI
[18] = tested on: SNB-75
[19] = tested on: NCI-H460

Measured: GI50

Clc1c(Cl)c(Cl)c2nn(C3CCCO3)nc2c1Cl (stereo not drawn)
inactive: [1] 37.3 µM | [2] 37.4 µM | [3] 46.5 µM | [4] 41.4 µM | [5] 39.4 µM | [6] 30.5 µM | [7] > 100 µM | [8] 32.4 µM | [9] > 100 µM | [10] 37.8 µM | [11] 70.3 µM | [12] 49.1 µM | [13] 28.1 µM | [14] 60.3 µM

COc1cc(S(=O)(=O)N/N=C/C=C/c2ccccc2)c(OC)cc1NC(C)=O
inactive: [15] 19.6 µM | [16] 25.4 µM | [1] 25.2 µM | [2] > 100 µM | [3] 51.9 µM | [5] 35.6 µM | [6] 78.9 µM | [7] 38.6 µM | [8] 17.8 µM | [9] > 100 µM | [17] 15.5 µM | [10] 41.8 µM | [11] 91.8 µM | [18] > 100 µM | [12] 9.62 µM | [13] > 100 µM | [14] 86.9 µM

COc1ccccc1/C=C1\SC(=S)N(/C=C2\C(=O)Oc3ccccc3C2=O)C1=O
inactive: [15] 33.2 µM | [16] 43.2 µM | [1] 26.5 µM | [2] 27.9 µM | [4] 34.3 µM | [5] 23.2 µM | [6] 33.4 µM | [7] 59.8 µM | [8] 36.6 µM | [9] 23 µM | [17] 34.9 µM | [10] 1.62 µM | [11] 34.8 µM | [18] 22 µM | [12] 38.7 µM | [14] 23.8 µM

NS(=O)(=O)c1ccc(NCc2cccc3c(=O)c4ccc(Cl)cc4oc23)cc1
inactive: [15] > 95.9 µM | [16] 6.38 µM | [1] > 39.2 µM | [2] > 86.1 µM | [3] > 56.6 µM | [4] 23.8 µM | [5] 12.3 µM | [6] 23.1 µM | [7] > 100 µM | [8] 20.2 µM | [9] > 71.8 µM | [17] 20.9 µM | [10] 31.5 µM | [11] > 58.5 µM | [18] 37.8 µM | [12] 31.4 µM | [13] 39.7 µM | [14] 23.1 µM

CCNc1cc2oc(=O)cc(C(F)(F)F)c2cc1C
inactive: [15] > 100 µM | [16] > 100 µM | [1] > 100 µM | [2] > 100 µM | [3] > 100 µM | [4] > 100 µM | [6] > 100 µM | [19] > 100 µM | [7] > 100 µM | [8] > 100 µM | [9] > 100 µM | [17] > 100 µM | [10] > 100 µM | [11] > 100 µM | [18] 27 µM | [12] > 100 µM | [13] > 100 µM | [14] > 100 µM
